Test results from US5059590A, “Imidazole derivatives, process for production thereof, and use thereof” (Yamasa Shoyu Kabushiki Kaisha, priority 1988, dated 1991).
Values after ≈ are worked out from the molar mass of the structure shown.

Columns and labels:
sarcoma 180 = test: In vivo antitumor activity against sarcoma 180 intracutaneously implanted into BALB/c mice; parameters: species or system mouse; key to Tumor growth rate (Rt): R = tumor volume at time / tumor volume on day 8 (A/A8); conditions: for antitumor activity: i.v.
Procedure: In vivo antitumor activity against sarcoma 180 intracutaneously implanted into BALB/c mice
Three million (3×10^6) Sarcoma 180 cells are intracutaneously implanted at the ventral site of BALB/c mice (male, 5 weeks old). Eight days after the implantation when the tumor volume reached 200 to 300 mm^3, the mice are divided into groups (6 mice/group), and the treatment with a test drug was started. The test drug is dissolved in distilled water and intravenously administered to the mice at a rate of 0.1 ml per 10 g of the body weight thereof. In accordance with two different schedules, 5-ethynyl01β-D-ribofuranosylimidazole-4-carboxamide is administered once or three times, i.e., once at a dose of 250 mg/kg on day 8 (single-dose group) or three times at a dose of 125 mg/kg on days 8, 12 and 16 (multiple-dose group).
Each mouse is weighed, and the width (a mm) and length (b mm) of the tumor thereof are measured twice a week to determine the tumor volume (A mm^3) from the following equation: […]
Subsequently, the tumor growth rate (R) is determined as follows on the basis of the tumor volume (A8) on day 8 after the implantation of the tumor cells :
R: Tumor growth rate after a predetermined period from the tumor implantation
A: Tumor volume after a predetermined period from the tumor implantation
A8 : Tumor volume as determided 8 days after the tumor implantation
T/C(%) is further obtained from the following equation by comparison between the tumor growth rate in the test group (Rt) and that in the control group (Rc):
Single-dose group: 250 mg/kg of the drug was intravenously administered o
day 8 after the tumor implantation.
Multipledose group: 125 mg/kg of the drug was intravenously administered
on days 8, 12 and 16 after the tumor implantation.

KB = test: In vitro anti-proliferative activity against human tumor cell lines (KB); type: cell-based; conditions: Nasopharyngeal carcinoma, 72 hours
Procedure: (§1) In vitro anti-proliferative activity against human tumor cell lines
(§2) Test Compound: 5-ethynyl-1-β-D-ribofuranosylimidazole-4-carboxamide
(§3) A variety of human tumor cell lines are suspended in media specified according to the species of the cell lines to predetermined cell concentrations as shown in the following Table.
(§4) 1 ml of the resulting cell suspension is seeded into each well of a 24 multi-well plate and incubated in a 5% CO2 -incubator at 37° C. for 24 hours. The culture medium is then replaced by a medium containing no test compound or by an appropriate amount of a serially diluted test compound solution. […] The number of the cells in each well is counted with a Coulter counter (Model ZB, Coulter Electronics), and the growth inhibition percent (%) of the cells at each concentration of a test compound is determined by the following equation: [formula] Tx: Number of the cells in a well containing a test compound as counted upon completion of the incubation (cells/ml) […] Cx: Number of the cells in a well containing no test compound as counted upon completion of the incubation (cells/ml)
(§5) Co: Number of the cells in a well containing no test compound as counted at the initiation of the incubation (cells/ml) […]

HeLa = test: In vitro anti-proliferative activity against human tumor cell lines (HeLa); type: cell-based; conditions: Cervical carcinoma, 72 hours
Procedure: as §1, §2, §3, §4, §5

[1] = multiple-dose group, 125 mg/kg i.v. days 8, 12, 16, day 8 after implantation
[2] = multiple-dose group, 125 mg/kg i.v. days 8, 12, 16, day 12
[3] = multiple-dose group, 125 mg/kg i.v. days 8, 12, 16, day 15, * = P < 0.05 vs control
[4] = multiple-dose group, 125 mg/kg i.v. days 8, 12, 16, day 19, * = P < 0.05 vs control
[5] = multiple-dose group, 125 mg/kg i.v. days 8, 12, 16, day 22, * = P < 0.05 vs control
[6] = multiple-dose group, 125 mg/kg i.v. days 8, 12, 16, day 26, * = P < 0.05 vs control
[7] = multiple-dose group, 125 mg/kg i.v. days 8, 12, 16, day 29, * = P < 0.05 vs control
[8] = multiple-dose group, 125 mg/kg i.v. days 8, 12, 16, day 33
[9] = single-dose group, 250 mg/kg i.v. day 8, day 8 after implantation
[10] = single-dose group, 250 mg/kg i.v. day 8, day 12, * = P < 0.05 vs control
[11] = single-dose group, 250 mg/kg i.v. day 8, day 15, * = P < 0.05 vs control
[12] = single-dose group, 250 mg/kg i.v. day 8, day 19, * = P < 0.05 vs control
[13] = single-dose group, 250 mg/kg i.v. day 8, day 22, * = P < 0.05 vs control
[14] = single-dose group, 250 mg/kg i.v. day 8, day 26, * = P < 0.05 vs control
[15] = single-dose group, 250 mg/kg i.v. day 8, day 29, * = P < 0.05 vs control
[16] = single-dose group, 250 mg/kg i.v. day 8, day 33, * = P < 0.05 vs control

SMILES: C#Cc1c(C(N)=O)ncn1[C@@H]1O[C@H](CO)[C@@H](O)[C@H]1O [5-ethynyl-1-β-D-ribofuranosylimidazole-4-carboxamide]
- antitumor activity (sarcoma 180; 125 mg/kg every 4 days 3 times in total): remarkable antitumor activity
- Body weight (sarcoma 180; [1]): 26 g
- T/C (%) (sarcoma 180; [1]): 100%
- Tumor growth rate (Rt) (sarcoma 180; [1]): 1.0
- Body weight (sarcoma 180; [2]): 26 g
- T/C (%) (sarcoma 180; [2]): 81%
- Tumor growth rate (Rt) (sarcoma 180; [2]): 1.5
- Body weight (sarcoma 180; multiple-dose group, 125 mg/kg i.v. days 8, 12, 16, day 15): 25 g
- T/C (%) (sarcoma 180; [3]): 51%
- Tumor growth rate (Rt) (sarcoma 180; [3]): 1.5
- Body weight (sarcoma 180; multiple-dose group, 125 mg/kg i.v. days 8, 12, 16, day 19): 25 g
- T/C (%) (sarcoma 180; [4]): 45%
- Tumor growth rate (Rt) (sarcoma 180; [4]): 1.9
- Body weight (sarcoma 180; multiple-dose group, 125 mg/kg i.v. days 8, 12, 16, day 22): 26 g
- T/C (%) (sarcoma 180; [5]): 37%
- Tumor growth rate (Rt) (sarcoma 180; [5]): 2.6
- Body weight (sarcoma 180; multiple-dose group, 125 mg/kg i.v. days 8, 12, 16, day 26): 26 g
- T/C (%) (sarcoma 180; [6]): 39%
- Tumor growth rate (Rt) (sarcoma 180; [6]): 4.7
- Body weight (sarcoma 180; multiple-dose group, 125 mg/kg i.v. days 8, 12, 16, day 29): 26 g
- T/C (%) (sarcoma 180; [7]): 42%
- Tumor growth rate (Rt) (sarcoma 180; [7]): 7.0
- Body weight (sarcoma 180; [8]): 27 g
- T/C (%) (sarcoma 180; [8]): 53%
- Tumor growth rate (Rt) (sarcoma 180; [8]): 11
- antitumor activity (sarcoma 180; once at a dose of 250 mg/kg): remarkable antitumor activity
- Body weight (sarcoma 180; [9]): 25 g
- T/C (%) (sarcoma 180; [9]): 100%
- Tumor growth rate (Rt) (sarcoma 180; [9]): 1.0
- Body weight (sarcoma 180; single-dose group, 250 mg/kg i.v. day 8, day 12): 24 g
- T/C (%) (sarcoma 180; [10]): 65%
- Tumor growth rate (Rt) (sarcoma 180; [10]): 1.2
- Body weight (sarcoma 180; single-dose group, 250 mg/kg i.v. day 8, day 15): 25 g
- T/C (%) (sarcoma 180; [11]): 45%
- Tumor growth rate (Rt) (sarcoma 180; [11]): 1.3
- Body weight (sarcoma 180; single-dose group, 250 mg/kg i.v. day 8, day 19): 25 g
- T/C (%) (sarcoma 180; [12]): 46%
- Tumor growth rate (Rt) (sarcoma 180; [12]): 2.0
- Body weight (sarcoma 180; single-dose group, 250 mg/kg i.v. day 8, day 22): 26 g
- T/C (%) (sarcoma 180; [13]): 34%
- Tumor growth rate (Rt) (sarcoma 180; [13]): 2.4
- Body weight (sarcoma 180; single-dose group, 250 mg/kg i.v. day 8, day 26): 26 g
- T/C (%) (sarcoma 180; [14]): 39%
- Tumor growth rate (Rt) (sarcoma 180; [14]): 4.7
- Body weight (sarcoma 180; single-dose group, 250 mg/kg i.v. day 8, day 29): 26 g
- T/C (%) (sarcoma 180; [15]): 39%
- Tumor growth rate (Rt) (sarcoma 180; [15]): 6.6
- Body weight (sarcoma 180; single-dose group, 250 mg/kg i.v. day 8, day 33): 27 g
- T/C (%) (sarcoma 180; [16]): 45%
- Tumor growth rate (Rt) (sarcoma 180; [16]): 9.5
- IC50 (KB): 0.33 µg/mL (≈ 1.23 µM)
- IC50 (HeLa): 0.3 µg/mL (≈ 1.12 µM)
